Measured values: US20250215010A1, “DIAZABICYCLOOCTANE DERIVATIVES USEFUL AS MATRIX METALLOPROTEINASE INHIBITORS” (VASA THERAPEUTICS SPOLKA Z OGRANICZONA ODPOWIEDZIALNOSCIA, priority 2022, published 2025)

How the values were obtained:
Type in all cases: biochemical
MMP2 = biological target: T1, MMP2 (Homo sapiens, UniProt P08253); test: MMP-2 colorimetric inhibition assay (Enzo kit BML-AK408); settings: thiopeptide substrate, absorbance 415 nm; read-out: MMP 2 IC50 class
T1 sequence (P08253 110-660): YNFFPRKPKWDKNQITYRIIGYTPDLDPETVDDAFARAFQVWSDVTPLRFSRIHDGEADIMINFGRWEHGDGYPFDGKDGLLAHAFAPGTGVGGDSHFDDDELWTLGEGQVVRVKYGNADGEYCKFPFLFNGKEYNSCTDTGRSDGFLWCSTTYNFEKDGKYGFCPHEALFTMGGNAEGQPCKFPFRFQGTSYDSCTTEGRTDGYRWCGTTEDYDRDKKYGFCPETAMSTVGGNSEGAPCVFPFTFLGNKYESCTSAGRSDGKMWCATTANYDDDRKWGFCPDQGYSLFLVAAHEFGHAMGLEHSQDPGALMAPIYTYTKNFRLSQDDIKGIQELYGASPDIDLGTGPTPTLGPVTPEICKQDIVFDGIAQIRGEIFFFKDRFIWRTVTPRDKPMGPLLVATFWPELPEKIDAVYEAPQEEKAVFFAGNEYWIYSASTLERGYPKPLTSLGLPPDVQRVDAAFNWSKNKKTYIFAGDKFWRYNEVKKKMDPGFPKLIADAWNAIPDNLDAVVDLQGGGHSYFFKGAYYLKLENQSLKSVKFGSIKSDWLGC
Description: (§1) The inhibitory activities of the compounds of the invention were assessed in 96-well microplate format using MMP1, MMP2, MMP9 and MMP13 colorimetric assay kits and TACE fluorometric assay kit from Enzo Life Sciences, Inc. The inhibitory effect of the compounds of the invention on ADAM10 activity were evaluated in 96-well microplate format using fluorometric assay from AnaSpec, Inc.
(§2) The MMP-2 Colorimetric Drug Discovery Kit (catalog #BML-AK408) is a complete assay system designed to screen MMP-2 inhibitors using a thiopeptide as a chromogenic substrate (Ac-PLG-[2-mercapto-4-methylpentanoyl]-LG-OC2H5). The MMP cleavage site peptide bond is replaced by a thioester bond in the thiopeptide. Hydrolysis of this bond by an MMP produces a sulfhydryl group, which reacts with DTNB [5,5′-dithiobis(2-nitrobenzoic acid), Ellman's reagent] to form 2-nitro-5-thiobenzoic acid, that can be detected spectrophotometrically.
(§3) The inhibitory activities of the compounds of the invention against MMP1, MMP2, MMP9 and MMP13 were tested according to the manufacturer's assay protocols and the absorbance at 415 nm was monitored using the Tecan Infinite® 200 Pro F Nano^+ microplate reader.
(§4) The normalized values were analyzed using GraphPadPrism 9 for Windows (GraphPad Software, San Diego, CA, USA) software by plotting inhibition curves and determining the IC50 values (in nM).

MMP13 = biological target: T2, MMP13 (Homo sapiens, UniProt P45452); test: MMP-13 colorimetric inhibition assay (Enzo kit BML-AK412); settings: thiopeptide substrate, absorbance 415 nm; read-out: MMP 13 IC50 class
T2 construct: purchased Enzo Life Sciences, Inc. BML-AK412
Description: as §1
as §2, with “MMP-13” for “MMP-2”, “#BML-AK412)” for “#BML-AK408)”, “screen” for “screen MMP-2”, “inhibitors of matrix metalloproteinase-13” for “inhibitors”
as §3, §4

MMP1 = biological target: T3, MMP1 (Homo sapiens, UniProt P03956); test: MMP-1 colorimetric inhibition assay (Enzo kit BML-AK404); settings: thiopeptide substrate, absorbance 415 nm; read-out: MMP 1 IC50 class
T3 sequence (P03956 100-269 limits assumed): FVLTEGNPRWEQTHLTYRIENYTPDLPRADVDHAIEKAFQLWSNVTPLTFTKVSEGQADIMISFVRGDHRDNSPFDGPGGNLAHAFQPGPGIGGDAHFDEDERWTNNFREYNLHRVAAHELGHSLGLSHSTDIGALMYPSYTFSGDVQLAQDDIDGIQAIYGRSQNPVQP
Description: as §1
as §2, with “MMP-1” for “MMP-2”, “#BML-AK404)” for “#BML-AK408)”, “screen” for “screen MMP-2”, “inhibitors of matrix metalloproteinase-1” for “inhibitors”
as §3, §4

MMP9 = MMP9 (Homo sapiens, UniProt P14780); test: MMP-9 colorimetric inhibition assay (Enzo kit BML-AK410); settings: thiopeptide substrate, absorbance 415 nm; read-out: MMP 9 IC50 class
MMP9, sequence (P14780 94-707): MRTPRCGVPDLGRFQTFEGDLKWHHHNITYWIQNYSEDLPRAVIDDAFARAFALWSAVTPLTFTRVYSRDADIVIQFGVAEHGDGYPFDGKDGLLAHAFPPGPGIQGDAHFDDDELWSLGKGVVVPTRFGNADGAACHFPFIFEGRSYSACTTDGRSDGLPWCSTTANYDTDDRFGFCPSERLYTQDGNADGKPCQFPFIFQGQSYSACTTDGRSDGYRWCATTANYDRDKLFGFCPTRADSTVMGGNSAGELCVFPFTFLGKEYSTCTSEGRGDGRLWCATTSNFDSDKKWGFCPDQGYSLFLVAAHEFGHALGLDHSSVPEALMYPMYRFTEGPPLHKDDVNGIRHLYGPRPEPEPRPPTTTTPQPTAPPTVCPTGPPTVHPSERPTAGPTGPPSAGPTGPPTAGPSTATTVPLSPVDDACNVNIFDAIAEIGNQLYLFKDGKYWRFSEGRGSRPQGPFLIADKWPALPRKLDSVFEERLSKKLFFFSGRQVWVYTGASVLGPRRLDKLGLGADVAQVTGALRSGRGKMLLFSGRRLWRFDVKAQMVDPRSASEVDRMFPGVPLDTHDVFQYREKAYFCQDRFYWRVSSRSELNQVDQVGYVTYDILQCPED
Description: as §1
as §2, with “MMP-9” for “MMP-2”, “#BML-AK410)” for “#BML-AK408)”, “screen” for “screen MMP-2”, “inhibitors of matrix metalloproteinase-9” for “inhibitors”
as §3, §4

ADAM17 (TACE) = ADAM17 (TACE) (Homo sapiens, UniProt P78536); test: TACE fluorometric inhibition assay (Enzo kit BML-AK310); settings: quenched fluorogenic peptide, ex/em 320/420 nm; read-out: TACE IC50 class
ADAM17 (TACE), sequence (P78536 215-477 limits assumed): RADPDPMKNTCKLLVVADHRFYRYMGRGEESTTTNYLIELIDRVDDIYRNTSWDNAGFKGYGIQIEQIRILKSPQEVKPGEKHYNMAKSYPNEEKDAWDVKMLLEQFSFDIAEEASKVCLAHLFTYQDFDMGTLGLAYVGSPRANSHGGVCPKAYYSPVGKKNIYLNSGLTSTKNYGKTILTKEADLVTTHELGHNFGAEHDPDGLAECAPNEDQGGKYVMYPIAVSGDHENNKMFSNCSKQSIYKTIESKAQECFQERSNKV
Description: as §1
The TACE Fluorometric Drug Discovery Kit (catalog #BML-AK310) is a complete assay system designed to screen ADAM17 (TACE) inhibitors using a quenched fluorogenic peptide: Mca-PLAQAV-Dpa-RSSSR—NH2. Mca fluorescence is quenched by the Dpa group until cleavage by proteases separates the two moieties leading to an increase in Mca fluorescence.
The inhibitory activity of the compounds of the invention against TACE was tested according to the manufacturer's assay protocol and the fluorescence was monitored at excitation/emission wavelengths=320 nm/420 nm using Tecan Infinite® 200 Pro F Nano^+ microplate reader.
as §4

| SMILES | IC50 (MMP2) [nM] | IC50 (MMP13) [nM] | IC50 (MMP1) [nM] | IC50 (MMP9) [nM] | IC50 (ADAM17 (TACE)) [nM] |
| --- | --- | --- | --- | --- | --- |
| CCOC(=O)N1[C@@H]2CC[C@H]1[C@H](C(=O)NO)N(S(=O)(=O)N1CCC(Oc3ccnc(C(F)(F)F)c3)CC1)C2 [Example 50, ethyl (1S,2R,5R)-2-(hydroxy-carbamoyl)-3-((4-((2-(trifluoro-methyl)pyridin-4-yl)oxy)-piperidin-1-yl)-sulfonyl)-3,8-diazabicyclo-[3.2.1]octane-8-carboxylate] | 50 to 1000 | 50 to 1000 | > 10000 | 50 to 1000 | 1000 to 10000 |
| CN(C)C(=O)CN1[C@@H]2CC[C@H]1[C@H](C(=O)NO)N(S(=O)(=O)c1ccc(Oc3ccc(F)cc3)nc1)C2 [Example 51, (1S,2R,5R)-8-(2-(dimethylamino)-2-oxoethyl)-3-((6-(4-fluorophenoxy)pyridin-3-yl)sulfonyl)-N-hydroxy-3,8-diazabicyclo[3.2.1]octane-2-carboxamide] | < 50 | < 50 | 1000 to 10000 | 50 to 1000 | > 10000 |
| O=C(NO)[C@H]1[C@@H]2CC[C@H](CN1S(=O)(=O)c1ccc(Oc3ccc(F)cc3)nc1)N2CC(=O)N1CCCC1 [Example 52, (1S,2R,5R)-3-((6-(4-fluorophenoxy)pyridin-3-yl)sulfonyl)-N-hydroxy-8-(2-oxo-2-(pyrrolidin-1-yl)ethyl)-3,8-diazabicyclo[3.2.1]octane-2-carboxamide] | < 50 | < 50 | 1000 to 10000 | 50 to 1000 | > 10000 |
| CC(C)Oc1ccc(Oc2ccc(S(=O)(=O)N3C[C@H]4CC[C@@H]([C@@H]3C(=O)NO)N4C(=O)C(C)C)cn2)cc1 [Example 60, (1S,2R,5R)-N-hydroxy-8-isobutyry1-3-((6-(4-isopropoxy-phenoxy)pyridin-3-yl)sulfonyl)-3,8-diazabicyclo-[3.2.1]octane-2-carboxamide] | < 50 | < 50 | 1000 to 10000 | < 50 | > 10000 |
| CC(C)Oc1ccc(Oc2ccc(S(=O)(=O)N3C[C@H]4CC[C@@H]([C@@H]3C(=O)NO)N4C(=O)C(C)(C)C)cn2)cc1 [Example 61, (1S,2R,5R)-N-hydroxy-3-((6-(4-isopropoxyphenoxy)-pyridin-3-yl)-sulfonyl)-8-pivaloyl-3,8-diazabicyclo-[3.2.1]octane-2-carboxamide] | < 50 | < 50 | 1000 to 10000 | 50 to 1000 | > 10000 |
| CC(=O)N1[C@@H]2CC[C@H]1[C@H](C(=O)NO)N(S(=O)(=O)N1CCC(Oc3ccnc(C(F)(F)F)c3)CC1)C2 [Example 64, (1S,2R,5R)-8-acetyl-N-hydroxy-3-((4-((2-(trifluoromethyl)-pyridin-4-yl)oxy)-piperidin-1-yl)-sulfonyl)-3,8-diazabicyclo[3.2.1]-octane-2-carboxamide] | 50 to 1000 | 50 to 1000 | 1000 to 10000 | 50 to 1000 | 1000 to 10000 |
| O=C(NO)[C@H]1[C@@H]2CC[C@H](CN1S(=O)(=O)c1ccc(Oc3ccc(F)cc3)nc1)N2C(=O)N1CCOCC1 [Example 68, (1S,2R,5R)-3-((6-(4-fluorophenoxy)pyridin-3-yl)sulfonyl)-N-hydroxy-8-(morpholine-4-carbonyl)-3,8-diazabicyclo[3.2.1]octane-2-carboxamide] | < 50 | < 50 | 1000 to 10000 | 50 to 1000 | 1000 to 10000 |
| CN1CCN(C(=O)N2[C@@H]3CC[C@H]2[C@H](C(=O)NO)N(S(=O)(=O)c2ccc(Oc4ccc(F)cc4)nc2)C3)CC1 [Example 69, (1S,2R,5R)-3-((6-(4-fluorophenoxy)pyridin-3-yl)sulfonyl)-N-hydroxy-8-(4-methyl-piperazine-1-carbonyl)-3,8-diazabicyclo-[3.2.1]octane-2-carboxamide] | < 50 | 50 to 1000 | 1000 to 10000 | 50 to 1000 | 1000 to 10000 |
| CC(C)Oc1ccc(Oc2ccc(S(=O)(=O)N3C[C@H]4CC[C@@H]([C@@H]3C(=O)NO)N4C(=O)N3CCOCC3)cn2)cc1 [Example 71, (1S,2R,5R)-N-hydroxy-3-((6-(4-isopropoxyphenoxy)-pyridin-3-yl)sulfonyl)-8-(morpholine-4-carbonyl)-3,8-diazabicyclo[3.2.1]-octane-2-carboxamide] | < 50 | < 50 | 1000 to 10000 | 50 to 1000 | > 10000 |
| CCN1CCC(Oc2ccc(S(=O)(=O)N3C[C@H]4CC[C@@H]([C@@H]3C(=O)NO)N4C(=O)OCCOC)cn2)CC1 [Example 74, 2-methoxyethyl (1S,2R,5R)-3-((6-((1-ethylpiperidin-4-yl)oxy)pyridin-3-yl)sulfonyl)-2-(hydroxycarbamoyl)-3,8-diazabicyclo[3.2.1]octane-8-carboxylate] | > 10000 | > 10000 | > 10000 | 1000 to 10000 | > 10000 |
| COCCOC(=O)N1[C@@H]2CC[C@H]1[C@H](C(=O)NO)N(S(=O)(=O)c1ccc(OC3CCN(C(C)C)CC3)nc1)C2 [Example 75, 2-methoxyethyl (1S,2R,5R)-2-(hydroxycarbamoyl)-3-((6-((1-isopropyl-piperidin-4-yl)oxy)-pyridin-3-yl)-sulfonyl)-3,8-diaza-bicyclo[3.2.1]octane-8-carboxylate] | 50 to 1000 | 50 to 1000 | 1000 to 10000 | 50 to 1000 | 1000 to 10000 |
| COCCOC(=O)N1[C@@H]2CC[C@H]1[C@H](C(=O)NO)N(S(=O)(=O)N1CCN(Cc3ccc(Cl)cc3)CC1)C2 [Example 76, 2-methoxyethyl (1S,2R,5R)-3-((4-(4-chlorobenzyl)piperazin-1-yl)sulfonyl)-2-(hydroxycarbamoyl)-3,8-diazabicyclo[3.2.1]octane-8-carboxylate] | 50 to 1000 | 50 to 1000 | > 10000 | 50 to 1000 | 1000 to 10000 |
